In patent publication US20120192315A1, “RESISTANCE GENES AND PROTEINS ACTIVE AGAINST FUSARIUM ROOT ROTS, CYST NEMATODES AND SOYBEAN SUDDEN DEATH SYNDROME AND METHODS EMPLOYING SAME” (Southern Illinois University Carbondale, priority 2011, published 2012):
“Also recorded” adds a separate entry of the source. Like-named read-outs stand apart in the source and are kept apart here. Where no end group is shown, it is not given here.

T1: purified GmRLK18-1 LRR domain (6x his-RHG1) (Glycine max)
T1 chain: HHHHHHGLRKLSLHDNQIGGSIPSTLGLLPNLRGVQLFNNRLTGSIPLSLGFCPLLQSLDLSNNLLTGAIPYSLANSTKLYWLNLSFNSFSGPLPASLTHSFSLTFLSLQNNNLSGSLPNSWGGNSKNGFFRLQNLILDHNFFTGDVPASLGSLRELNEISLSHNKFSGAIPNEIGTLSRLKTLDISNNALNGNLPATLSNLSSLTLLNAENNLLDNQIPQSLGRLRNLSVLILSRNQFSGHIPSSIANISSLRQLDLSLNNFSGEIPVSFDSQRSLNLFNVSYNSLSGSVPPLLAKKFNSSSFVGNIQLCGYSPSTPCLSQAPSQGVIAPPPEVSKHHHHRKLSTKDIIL


Assays:
[1] = biological target: GmRLK18-1 LRR domain (RHG1); assay: Binding of CLE like peptides to purified LRR domain of the RLK at rhg1/Rfs2, titration by luminescence spectrometry; design: species or system Glycine max
Text: (§1) The full length rhg1/Rfs2 or Rhg4 cDNA from the SCN resistant cultivar, ‘Forrest’ (Bruker et al. 2005), was sub-cloned in pGEM-T vector. For the rhg1/Rfs2 LRR DNA was PCR amplified using internal primers. Primers were designed to copy and amplify a 1032 bp region encompassing the 10 LRRs of rhg1. The sense primer 141-485F: 5′-[…]-3′ contained an eight base linker followed by an NcoI restriction site (in bold) to allow in-frame cloning into the expression vector pET30A (+). A factor Xa site (underlined) was incorporated in the sense primer in order to cleave the fusion protein. The anti-sense primer 141-485R: 5′-[…]-3′ contained a six base linker followed by an XhoI restriction site (in bold). The stop codon (underlined) was added to the primer sequence to terminate the RHG1 translation. The amplicon obtained by PCR was isolated by agarose gel electrophoresis and purified using gel elution. The amplified fragment was subcloned into pGEMT vector by ligation of the 3′T vector overhang with the 3′A added by Taq polymerase during template amplification. The complementarity between the vector 3′T overhangs and the PCR product 3′A overhangs allowed for direct ligation of PCR products into the vector. pGEMT vector was transformed into DH5a cells, positive colonies were selected and grown overnight in 5 ml of 2-fold YT medium. The recombinant plasmid DNA was purified using the Qiagen mini-prep kit.
About […] of the LRR sub-clone plasmid DNA was digested with NcoI and XhoI. Purified insert was ligated overnight at 16° C. using T4 DNA ligase into a XhoI/NcoI predigested pET30a (+) vector. The ratio of insert DNA to plasmid DNA was 3:1. The construct contained the hexa-his inframe with the Factor Xa vector site and 5′ end of the insert. The recombinant plasmid was transformed into DH5a cells. Positive colonies were selected on 2-fold YT plates supplemented with 50 μg/ml kanamycin and screened by digestion of mini-prep plasmid DNA with NcoI and XhoI followed by agarose gel electrophoresis. The nature of the inserts were also verified by DNA sequence analysis using the ABI 377 DNA sequencer (Foster City, Calif.).
A Quikchange site directed mutagenesis kit (Stratagene) was used for RLSH generation. Both sense and anti-sense primers were designed to loop out the 114 bp nucleotide linker region between the hexa-his tag and the first codon of RLLH. The forward primer DMF1: 5′-[…]-3′ and reverse primer DMR1: 5′-[…]-3′ were complementary in sequence and annealed to opposite stands of DNA. Amplification of template was performed with Pfu-Turbo DNA polymerase. Following amplification, the parent DNA (methylated and hemi-methylated) was digested with DpnI endonuclease (target sequence: 5′-Gm6ATC-3′). The amplified vector DNA containing the desired deletion was transformed into XL1-Blue competent cells and the cells were grown overnight in 2XYT supplemented with 50 μg/ml tetracycline and 50 μg/ml kanamycin. Colonies were picked, grown overnight, DNA purified and inserts identified by digestion of plasmid DNA with NdeI and XhoI followed by 2% (w/v) agarose gel electrophoresis. DNA was subsequently sequenced to verify looping out of the RLLH linker region. DNA from positive clones was transformed into BL21 (DE3-RIL) competent cells.
BL21-CodonPlus™-RIL series of strains contain extra copies of the E. coli argU, ileY, and leuW tRNA genes. The modification allowed for high expression of proteins that were difficult to express in conventional E. coli hosts due to the codon usage bias of the gene of interest. RHG1 protein contained 18 codons rarely used in E. coli in the LRR alone (Table 3.1). The 5 ml of LB overnight culture containing Rhg1/Rfs2 LRR or Rhg4 LRR was transferred to 1 L of M9 minimal media supplemented with ammonium sulfate and kanamycin. The cells were grown at 37° C. to an O.D of 1.0. The protein was induced with 0.4 mM IPTG and incubated at 16° C. in an orbital shaker for 18-20 h. […]

[2] = system: GmRLK8-1 LRR domain (RHG4); assay: Binding of CLE like peptides to purified LRR domain of the RLK at Rhg4, titration by luminescence spectrometry; design: species or system Glycine max
Text: as §1
BL21-CodonPlus™-RIL series of strains contain extra copies of the E. coli argU, ileY, and leuW tRNA genes. The modification allowed for high expression of proteins that were difficult to express in conventional E. coli hosts due to the codon usage bias of the gene of interest. RHG1 protein contained 18 codons rarely used in E. coli in the LRR alone (Table 3.1). The 5 ml of LB overnight culture containing Rhg1/Rfs2 LRR or Rhg4 LRR was transferred to 1 L of M9 minimal media supplemented with ammonium sulfate and kanamycin. The cells were grown at 37° C. to an O.D of 1.0. The protein was induced with 0.4 mM IPTG and incubated at 16° C. in an orbital shaker for 18-20 h.
Proteins were solubilized from IBs, purified and refolded by the method described by Afzal and Lightfoot 2007, Protein Expression and Purification 53: 346-355. They were produced as in Example 9 and used for Far Western identification of interacting root proteins (FIGS. 4 & 5) and for identification of preferred ligands among small peptides found in root phloem (Table 4).

[3] = Exogenous peptide treatment of plants; assay type: in vivo; details: phenotypes: transient wilting, increased plant vigor, increased disease resistance
[4] = system: GmRLK18-1 LRR domain; assay: Far-Western analysis of soybean root proteins probed with the LRR domain of GmRLK18-1; assay type: binding, Glycine max; details: 2D gel of SCN inoculated root proteins of NIL 34-23; MS identification
[5] = biological target: GmRLK8-1 LRR domain (from the RLK protein at Rhg4) (Glycine max); assay: fluorescence (luminescence spectrometry) titration of peptide with purified LRR domain, in vitro
[6] = biological target: T1, purified GmRLK18-1 LRR domain (6x …); assay: as above
[7] = biological target: T1, purified GmRLK18-1 LRR domain (6x …); assay: fluorescence (luminescence spectrometry) titration of peptide with purified LRR domain, in vitro; apparent Kd for dimerization
[8] = purified LRR domain, binding constants calculated from titration experiments, read-out: Kd (nM) RHG4
[9] = purified LRR domain, binding constants calculated from titration experiments, read-out: Kd (nM) RHG1

Molecule | Kd [2, 8] [nM] | Kd [1, 9] [nM] | Kd [5] [nM] | Kd [6] [nM] | also measured
AHEVPSGPNPISNR [T, AHEVPSGPNPISNR] | 204 | – | – | – | Kd ([1]; assays in vitro, read-out: binding constants, GmRLK18-1-LRR): 20 nM; binding by the GmRLK8-1 LRR domain protein, in words ([2]; assays in vitro): bound weakly; effect as exogenous treatment [3]: effective
CTLSRLKTLDISNNALNGNLPATLSNLS [L] | 135 | – | – | – | Kd ([1]; estimated from the peptide with one diverged LRR motif, read-out: apparent Kd for dimerization): 36 nM
DLPLAPADRLAPGGPDPQHNVRAPPRKP [2L] | 338 | 142 | – | – | –
KGLGLHEELRTVPSGPDPLHHHVNPPRQPR [3L] | 142 | 65 | – | – | –
KRLSPSGPDPHHH [N, KRLSPSGPDPHHH] | – | 30 | – | – | binding by the GmRLK18-1 derived LRR peptide, in words ([1]; assays in vitro): strong binding constant; Kd ([2]; assays in vitro, read-out: affinity, GmRLK8-1 LRR domain): 78 nM; effect as exogenous treatment [3]: effective
RAELDFNYMSKRRVPNGPDPIHNRRAGNSGR [36L] | 51 | 49 | – | – | –
RLAPEGPDPHHN [compound 30, RLAPEGPDPHHN] | 84 | 44 | – | – | binding by the GmRLK18-1 derived LRR peptide, in words ([1]; assays in vitro): bound weakly; binding by the GmRLK8-1 LRR domain protein, in words ([2]; assays in vitro): bound very weakly
RLAPGGPDPQHN [compound 2, RLAPGGPDPQHN] | 96 | 45 | – | – | binding by the GmRLK8-1 LRR domain protein, in words ([2]; assays in vitro): bound very weakly
RTVPSGPDPLHH [compound 3, RTVPSGPDPLHH] | 50 | 29 | – | – | binding by the GmRLK18-1 derived LRR peptide, in words ([1]; assays in vitro): strong binding constant
SKRRVPNGPDPIHNR [compound 36, SKRRVPNGPDPIHNR] | 52 | 14 | – | – | –
cyclophilin: soybean cyclophilin, GenBank gi 17981611, binds the purified LRR domain | – | – | – | – | binding to the GmRLK18-1 LRR domain in Far-Western [4]: bound strongly; also recorded: interacting partner
SKRRVPNGPDPIHNR (modifications not checked) [peptide 36 (GmCLE34, AtCLE36, MtCLE36)] | – | – | 52 | 14 | –
AHEVPSGPNPISNR (modifications not checked) [peptide T (GmTDIF, ZeTDIF)] | – | – | 204 | 20 | –
RLAPGGPDPQHN (modifications not checked) [peptide 2 (GmNIC1, LjCLE-R2 and LjCLE-R1)] | – | – | 96 | 45 | –
CTLSRLKTLDISNNALNGNLPATLSNLS (modifications not checked) [peptide L (GmLRR, GmRLK18-1)] | – | – | 135 | – | Kd [7]: 36 nM
RLAPEGPDPHHN (modifications not checked) [peptide 30 (GmCLE30, GmRIC1)] | – | – | 84 | 44 | –
RAELDFNYMSKRRVPNGPDPIHNRRAGNSGR (modifications not checked) [peptide 36L (GmCLE34, AtCLE36, MtCLE36)] | – | – | 51 | 49 | –
RTVPSGPDPLHH (modifications not checked) [peptide 3 (GmCLE3, AtCLE3, AtClv3 unmodified)] | – | – | 50 | 29 | –
KRLSPSGPDPHHH (modifications not checked) [peptide N (HgCLV3)] | – | – | 78 | 30 | –
DLPLAPADRLAPGGPDPQHNVRAPPRKP (modifications not checked) [peptide 2L (GmNIC1, LjCLE-R2 and LjCLE-R1)] | – | – | 338 | 142 | –
KGLGLHEELRTVPSGPDPLHHHVNPPRQPR (modifications not checked) [peptide 3L (GmCLE3, AtCLE3, AtClv3 unmodified)] | – | – | 142 | 65 | –
